Holding throughout (type): cell-based
For series [1], the system named is Keratinocytes. Kind of series: IC50 on non-cancerous cell cultures. To be noted: normal primary short-term cell culture.
Series [2] relates to Fibroblasts. The series is described as follows: IC50 on non-cancerous cell cultures. The note with it: normal primary short-term cell culture.
Series [3] deals with Cisplatin resistant cell lines. Kind of series: Mean IC50 (MTT assay) on Cisplatin resistant cell lines. The procedure: (§1) Thus, it can be concluded that the biological activity is mediated by a longer chain (butoxy) at the meta-position, whereas the ortho- and para-positions are more suitable with a shorter chain (ethoxy). To have a further look at the influence of the different ligand systems and substitution patterns, all β-Hydroxydithiocinnamic acid alkyl esters were tested under same conditions as their derived ruthenium(II) complexes (Figure 5B, Supplementary Table S3). […] All ligands are less cytotoxic than Cisplatin itself and therefore the metal(II) center is necessary for the high cytotoxic activity, what is in clear contrast to the literature for O,S-chelating ruthenium(II) or osmium(II) compounds with thiomaltol ligand [48, 71] but confirmed for Ru(II)/Os(II) compounds with N,N-bidentate glycosyl heterocyclic ligands. This is exemplarily shown by the comparison of mean IC50 values for Cisplatin, L14, and Ru14 (Supplementary Figure S8).
Ovarian cancer cell lines were cultured under standard conditions (5% CO2, 37 °C, 90% humidity) in RPMI medium supplemented with 10% FCS, 100 U/mL penicillin and 100 µg/mL streptomycin (Life Technologies, Dreieich, Germany). Cisplatin (Sigma, Taufkirchen, Germany) was freshly dissolved at 1 mg/mL in 0.9% NaCl solution and diluted appropriately. New ruthenium(II) complexes and ligands were dissolved in dmso. Platinum-resistant A2780 and SKOV3 cells were established by repeated rounds of 3-day incubations with increasing amounts of Cisplatin starting with 0.1 µM. The concentration was doubled after 3 incubations, interrupted by recovery phases with normal medium. […] Determinations of IC50 values were carried out using the CellTiter96 non-radioactive proliferation assay (MTT assay, Promega, Mannheim, Germany). After seeding 5000 cells per well in a 96-well plate, cells were allowed to attach for 24 h and were incubated for 48 h with different concentrations of the substances ranging from 0 to 500 µM for Ruthenium and 0 to 1000 µM for ligand tests (0, 1, 10, 50, 100, 500, 1000 µm), for Cisplatin from 0 to 100 µM (0.1, 1, 5, 10, 50, 100 µM). Each measurement was done in triplicate and repeated 3 times. The proportion of viable cells was quantified by the MTT assay and after background subtraction relative values compared to the mean of medium controls were calculated. Non-linear regression analyses applying the Hill slope were run in GraphPad 5.0 software.

Series [4] deals with histone γH2AX-foci. Kind of series: γH2AX foci analysis (DNA damage). The note with it: IC50 concentration, 24h incubation. The source says: ROS production may also lead to endoplasmatic reticulum stress-induced apoptosis. In general, many ruthenium(II) complexes with different ligands induce intracellular ROS [94, 95, 96, 97, 98, 99]. Moreover, the cytotoxic activity of Os(II) compounds can be inhibited by vitamin E co-treatment pointing to the contribution of ROS [88]. In addition to mitochondrial dysfunction, Ru(II) complexes may affect glycolysis or topoisomerase I/II, thus inducing necroptosis. Ru(II) compounds with modified pyrithione ligands were recently described to overcome platinum resistance in ovarian cancer cells by inducing cytostatic G1 arrest, TrxR inhibition, and cell membrane damage. […] Future studies may identify the specific target proteins enabling molecular docking studies and specific refinement of the organo-metal compound structure. Altogether, presented compounds may use some of these alternative modes of action as well, as we see efficient cell death but no cell cycle arrest induction by Ru3/Ru14. Furthermore, the ruthenium(II) core atom might be responsible for this effect because of the lack of anticancer behaviour of the ligand L14 (Supplementary Figure S8). To further confirm that Ru compounds use another mechanism of action, DNA damage analyses were conducted for Ru3 and Ru14 (Figure 8). […]

Series [5] relates to all cancer cell lines. Kind of series: Mean IC50 (MTT assay) for all cancer cell lines. Here is the method:
as §1
Ovarian cancer cell lines were cultured under standard conditions (5% CO2, 37 °C, 90% humidity) in RPMI medium supplemented with 10% FCS, 100 U/mL penicillin and 100 µg/mL streptomycin (Life Technologies, Dreieich, Germany). […] The proportion of viable cells was quantified by the MTT assay and after background subtraction relative values compared to the mean of medium controls were calculated. […]

By IC50 is commonly meant the midpoint of a concentration-inhibition curve. For “[(η^6-p-cymene)Ru(1-(3-ethoxyphenyl)-3-(methylthio)-3-thioxo-prop-1-en-1-olate-O,S)] [Ru14]”, the half-maximal inhibitory concentration (IC50) in series [1] and in series [2] was more than 100 µM throughout. For the same substance, the “mean IC50 value on Cisplatin resistant cell lines compared with Cisplatin” value in series [3] is reported as “lower”. Further, the γH2AX-foci induction entry in series [4] is recorded as “less γH2AX-foci as Cisplatin”. Further, the “mean IC50 value / cytotoxicity for all cancer cell lines compared with Cisplatin” value in series [5] is “lower”.

These data come from publication PMC9102668, “Highly Cytotoxic Osmium(II) Compounds and Their Ruthenium(II) Analogues Targeting Ovarian Carcinoma Cell Lines and Evading Cisplatin Resistance Mechanisms” (International Journal of Molecular Sciences, 2022).
